Entries after “also recorded” stand apart in the source; their conditions may differ.
Tests used:
[1] = test system: PqsR-dependent pqsA::lux promoter fusion; experiment: pqsA::lux promoter fusion expression in P. aeruginosa PAO1-L (AQ-dependent QS biosensor); format: cell-based; conditions: for IC50: Pseudomonas aeruginosa, PAO1, read-out: IC50, pqsA::lux expression; for extent of inhibition of light output / pqsA expression at high concentrations: PAO1 pqsA::lux; for inhibition of pqsA::lux expression in first screening (FIG. 1-3): lactam 100 μM, control LB medium+1% methanol
Description: The expression of rhl and las AHL- and the pqsA AQ-synthase genes was evaluated using lux-based lasI (FIG. 1), rhlI (FIG. 2) and pqsA (FIG. 3) chromosomally integrated promoter fusions. Luminescence was quantified as a function of bacterial growth. The applicant further determined that none of the lactams is growth inhibitory at 100 μM using a large number of strains (figure not shown).
To determine the relative inhibitory activities (IC50s) of 4-(4-chlorophenyl)-5-methylene-pyrrol-2-one (Ref. 488) and 5-methylene-4-(p-tolyl)pyrrol-2-one (Ref. 491), dose response curves were constructed using the same biosensor strain (P. aeruginosa PAO1 pqsA::lux; Fletcher et al, 2007; Ilangovan et al 2013). This strain produces light in response to the endogenous production of AQs such as PQS and HHQ.

[2] = test system: pyocyanin production by PAO1-L; experiment: Pyocyanin production by PAO1-L, visual assessment; format: cell-based, P. aeruginosa PAO1-L; conditions: 488 at 100 μM (vial 2), 8 h at 37° C., PAO1-L culture supernatant
From the text: Pyocyanin is a blue redox-active secondary metabolite and a putative signalling molecule in P. aeruginosa (Jayaseelan et al, 2014). The pyocyanin biosynthetic (phz) genes are regulated by QS and in part via the transcriptional regulator PqsR acting through PqsE (Rampioni et al 2011).
Although qualitative, this observation offers further confirmation of the inhibitory effects of lactam 4-(4-chlorophenyl)-5-methylene-pyrrol-2-one (Ref. 488) on AQ-dependent QS.

PqsR = molecular target: T1, PqsR (Pseudomonas aeruginosa, UniProt Q9I4X0); experiment: PQS-dependent pqsA::lux expression in AQ-non-producing PAO1-L ΔpqsA (PqsR antagonism); format: cell-based, P. aeruginosa PAO1-L ΔpqsA
T1 construct: endogenous in cells; host or cells: P. aeruginosa PAO1-L ΔpqsA pqsA::lux (chromosomal reporter fusion)
T1 sequence (Q9I4X0 whole entry, the tested form may be a part): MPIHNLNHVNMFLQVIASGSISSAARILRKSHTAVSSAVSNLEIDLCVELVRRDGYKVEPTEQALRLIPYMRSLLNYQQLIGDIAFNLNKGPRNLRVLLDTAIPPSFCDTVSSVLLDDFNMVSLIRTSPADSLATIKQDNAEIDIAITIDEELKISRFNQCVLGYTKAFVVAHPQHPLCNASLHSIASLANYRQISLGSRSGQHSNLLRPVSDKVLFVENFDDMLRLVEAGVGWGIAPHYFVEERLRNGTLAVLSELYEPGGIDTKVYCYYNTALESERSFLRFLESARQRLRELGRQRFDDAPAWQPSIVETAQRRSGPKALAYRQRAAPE
Description: By using the AQ-non producing P. aeruginosa strain PAO1-L ΔpqsA, pqsA::lux, the EC50 value for the native PqsR agonist, PQS was calculated as ˜2 μM (Ilangovan et al. 2013). […]
A partial agonist is a molecule that can bind to and activate a receptor resulting in a non-complete response compared with a full agonist. […] This contrasts with its activity as an antagonist in the presence of 10 or 40 μM PQS.

[3] = test system: PqsR-independent pathway of pqsA expression; experiment: PqsR-independent expression of pqsA'::lux in PAO1-N ΔpqsAHR; format: cell-based, P. aeruginosa PAO1-N ΔpqsAHR; conditions: presence or absence of 40 μM PQS
From the text: PQS is capable of weakly activating pqsA in the absence of PqsR via a mechanism that is not fully understood but appears to depend on the iron chelating properties of PQS. The aim of this experiment was to clarify whether lactam 4-(4-chlorophenyl)-5-methylene-pyrrol-2-one (Ref. 488) is also inhibitory for pqsA expression via the PqsR independent pathway. As previously described, the pqsA′::lux biosensor based on the triple mutant PAO1-N ΔpqsAHR cannot produce AQs and lacks pqsR but still responds to exogenous PQS. This response is however much weaker that the PqsR-dependent response.

[4] = test system: enzymes (PqsABCD) involved in AQ biosynthesis; experiment: HHQ/AQ biosynthesis in PAO1-N ΔpqsAHR pBBR-pqsABCD, TLC with biosensor overlay; format: cell-based, P. aeruginosa PAO1-N ΔpqsAHR; conditions: 488 200 μM, overnight in LB
From the text: To determine whether 4-(4-chlorophenyl)-5-methylene-pyrrol-2-one (Ref. 488) is capable of inhibiting the enzymes (PqsABCD) involved in AQ biosynthesis, the P. aeruginosa PAO1-N ΔpqsAHR was exploited. This mutant cannot produce AQs because the genes coding for the key biosynthetic enzymes (PqsA and PqsH) and regulation (PqsR) have been deleted. To restore AQ production in a PqsR-independent manner in PAO1-N ΔpqsA, the pqsABCD genes were introduced on a plasmid (pBBR pqsABCD; Niewerth et al. 2011). P. aeruginosa PAO1-N ΔpqsAHR and P. aeruginosa PAO1-N ΔpqsAHR pBBR pqsABCD were both incubated overnight in LB with and without 4-(4-chlorophenyl)-5-methylene-pyrrol-2-one (Ref. 488) (200 μM), resuspended to an OD600 1.0. The cultures were extracted with acidified ethyl acetate, the organic phase removed, dried and resuspended in methanol subjected to thin layer chromatography (TLC).
After chromatography using a dichloromethane-methanol mobile phase, the TLC plates were overlaid with a thin agar layer containing the AQ biosensor strain PAO1-L ΔpqsA CTX::pqsA′-luxCDABE (Fletcher et al. 2007) incubated and examined for reporter output (FIG. 13). […] The biosensor strain produces light (FIG. 13 panel C) and pyocyanin (FIG. 13 panel B) in response to AQs that bind to PqsR and activate the pqsA promoter.

C=C1NC(=O)C=C1c1ccc(Cl)cc1 [Lactam 488, 4-(4-chlorophenyl)-5-methylene-pyrrol-2-one]
IC50 [1]: 22 µM | extent of inhibition of light output / pqsA expression at high concentrations [1]: completely inhibited light output; also recorded: fully knock out the PQS | inhibition of pqsA::lux expression in first screening (FIG. 1-3) [1]: most potent inhibitor; also recorded: inhibition of the pqs-system is the main effect | pyocyanin production (qualitative) [2]: inhibition of pyocyanin production | mode of antagonism of PQS-dependent pqsA::lux expression (PqsR; 488 at 0, 50, 100, 200 μM with range of PQS concentrations): competitive antagonist | restoration of light output by PQS in the presence of 488 (PqsR; 488 at 50, 100, 200 μM): fully restoring light output in the presence of 50 μM but not 100 μM or 200 μM | partial agonist activity (activation of pqsA expression) (PqsR; 488 up to 800 μM, PQS 0 μM, PAO1-L ΔpqsA pqsA'::lux): no partial agonist activity | fold increase of PQS EC50 in the presence of 488 (PqsR; fixed concentration of 488 (215 μM)): ~15 fold | effect on PqsR-independent expression of pqsA [3]: small inhibitory effect | inhibition of HHQ biosynthesis [4]: did not inhibit HHQ biosynthesis

C=C1NC(=O)C=C1c1ccc(C)cc1 [Lactam 491, 5-methylene-4-(p-tolyl)pyrrol-2-one]
IC50 [1]: 44 µM | extent of inhibition of light output / pqsA expression at high concentrations [1]: did not inhibit pqsA expression as strongly; also recorded: did not give complete knock out | inhibition of pqsA::lux expression in first screening (FIG. 1-3) [1]: inhibition of the pqs-system is the main effect
